Test systems include OVCAR-4; HT-29; A498; KM12; COLO 205; SR; A549; MDA-MB-231; HL-60; MCF7; LOX IMVI; DU-145; M14; Hs-578T; Malme-3M; ACHN; U-251; NCI-H460; SK-MEL-5; SF-539.
Common to all, as to experiment: growth of human tumour cells (NCI), 48 h

Consider eleven molecules from ChEMBL document CHEMBL1201862, “PubChem BioAssay data set” (2004).

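Compound exposure: 48 hours, 5 concentrations, 96-well plates. GI50 = concentration required for 50% inhibition of growth.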 Activity calls are given as the source filed them. No stated cut-off is given here; in the data, active = GI50 up to about 1.1 µM and inactive = higher.

Regarding `O=C(O)C/C=C/CC(=O)O`, the GI50 in the assay with OVCAR-4, in the assay on HT-29, in the assay with A498, in the assay on KM12, with COLO 205 and with SR was > 100 µM (inactive) each time. In addition, the GI50 with A549, with MDA-MB-231, in the assay with HL-60, in the assay with MCF7, in the assay on LOX IMVI and in the assay on DU-145 was > 100 µM (inactive) throughout. The GI50 with M14, with Hs-578T, with Malme-3M, in the assay on ACHN, in the assay on U-251 and with NCI-H460 was > 100 µM (inactive) throughout. Further, the GI50 in the assay on SK-MEL-5 is > 100 µM (inactive).

In the case of `CC(=O)c1ccccc1NCC(=O)Nn1cnc2ccc(S(=O)(=O)Nc3ccccc3C(C)=O)cc2c1=O`, the GI50 with OVCAR-4, in the assay with HT-29, in the assay on SF-539, with KM12, with COLO 205 and with SR was > 100 µM (inactive) throughout. For the same molecule, the GI50 in the assay on A549, in the assay on MDA-MB-231, in the assay with HL-60, in the assay on MCF7, in the assay with LOX IMVI and in the assay with DU-145 was > 100 µM (inactive) throughout. Besides, the GI50 is > 100 µM (inactive) with M14; 33.7 µM (inactive) with Hs-578T; > 100 µM (inactive) with Malme-3M; > 100 µM (inactive) in the assay on ACHN; > 100 µM (inactive) with U-251; > 100 µM (inactive) with NCI-H460.

Turning to `O=C(CC1C=CCS1(=O)=O)NCc1ccccc1` (centres undefined), the GI50 in the assay with OVCAR-4, with HT-29, in the assay with SF-539, in the assay with KM12, with COLO 205 and in the assay with SR was > 100 µM (inactive) in each case. Further, the GI50 in the assay with A549, in the assay on MDA-MB-231, in the assay on HL-60, with MCF7, with LOX IMVI and in the assay on DU-145 was > 100 µM (inactive) each time. The GI50 in the assay on M14, in the assay on Hs-578T, with ACHN, in the assay with U-251, in the assay on NCI-H460 and with SK-MEL-5 was > 100 µM (inactive) each time.

Turning to `CC(=O)O[C@H]1C(=O)[C@@]2(C)[C@H]([C@H](OC(=O)c3ccccc3)[C@]3(O)C[C@H](OC(=O)[C@H](O)[C@@H](NC(=O)c4ccc(N(C)C)cc4)c4ccccc4)C(C)=C1C3(C)C)[C@]1(OC(C)=O)CO[C@@H]1C[C@@H]2O`, the GI50 is 2.92 µM (inactive) in the assay with OVCAR-4; < 0.005 µM (active) in the assay with HT-29; < 0.005 µM (active) in the assay with SF-539; 0.0428 µM (active) with A498; < 0.005 µM (active) in the assay with KM12; < 0.005 µM (active) with COLO 205. The GI50 in the assay with SR is < 0.005 µM (active); with A549, < 0.005 µM (active); in the assay on MDA-MB-231, 0.0543 µM (active); in the assay on HL-60, < 0.005 µM (active); with MCF7 it was < 0.005 µM (active); with LOX IMVI it was < 0.005 µM (active). The GI50 in the assay on DU-145 was < 0.005 µM (active); in the assay on M14, < 0.005 µM (active); in the assay on Hs-578T it was < 0.005 µM (active); in the assay on ACHN, 0.0718 µM (active); in the assay on U-251 it was < 0.005 µM (active); with NCI-H460, < 0.005 µM (active). Further, the GI50 with SK-MEL-5 was < 0.005 µM (active).

With `CCCCCc1cc2cc3c(c(O)c2c(=O)[nH]1)C1(CCC3)C(=O)c2c(O)c3c(c(O)c2C1=O)C(=O)C(OC)=CC3=O` (centres undefined), the GI50 in the assay on OVCAR-4 was 1.44 µM (inactive); in the assay with HT-29 it was 0.748 µM (active); in the assay with A498, 2.18 µM (inactive); in the assay on KM12, 1.85 µM (inactive); in the assay with COLO 205 it was 0.276 µM (active); in the assay on SR, 0.573 µM (active). For the same molecule, the GI50 was 1 µM (active) with A549; 0.792 µM (active) in the assay on MDA-MB-231; 0.478 µM (active) with HL-60; 0.317 µM (active) with MCF7; 0.661 µM (active) with LOX IMVI; 0.822 µM (active) in the assay on DU-145. Also, the GI50 in the assay with M14 was 0.908 µM (active); with Hs-578T it was 0.743 µM (active); in the assay with Malme-3M it was 0.468 µM (active); in the assay with ACHN, 0.552 µM (active); in the assay with U-251, 0.621 µM (active); in the assay on NCI-H460 it was 0.757 µM (active). Also, the GI50 in the assay with SK-MEL-5 is 0.515 µM (active).

For `O=C(O)c1ccccc1/N=N/c1c(O)c(S(=O)(=O)O)cc2cc(S(=O)(=O)O)ccc12`, the GI50 in the assay on OVCAR-4 is > 100 µM (inactive); in the assay with HT-29, > 100 µM (inactive); with SF-539, > 100 µM (inactive); in the assay on A498, > 100 µM (inactive); in the assay on KM12, 84.3 µM (inactive); in the assay with COLO 205 it was > 100 µM (inactive). Besides, the GI50 in the assay with SR, in the assay with A549, with MDA-MB-231, in the assay on HL-60, in the assay on MCF7 and in the assay on DU-145 was > 100 µM (inactive) throughout. For the same molecule, the GI50 in the assay with M14, in the assay on Hs-578T, in the assay on Malme-3M, in the assay on ACHN, with U-251 and in the assay with NCI-H460 was > 100 µM (inactive) in each case. The GI50 in the assay with SK-MEL-5 was > 100 µM (inactive).

On to `COc1ccc(N2C(=O)C3c4[nH]c5ccc(C)cc5c4C4CCC(C(C)(C)C)CC4C3C2=O)cc1` (centres undefined), for which the GI50 was 3.35 µM (inactive) in the assay on OVCAR-4; 12.7 µM (inactive) with HT-29; 15.6 µM (inactive) in the assay on SF-539; 32.8 µM (inactive) with KM12; 18.4 µM (inactive) with COLO 205; 11.6 µM (inactive) with SR. For the same molecule, the GI50 in the assay with A549 was 6.9 µM (inactive); with MDA-MB-231 it was 35.9 µM (inactive); in the assay with HL-60, 19.1 µM (inactive); in the assay with MCF7 it was 33 µM (inactive); in the assay on DU-145 it was > 100 µM (inactive); with M14, 10.7 µM (inactive). Also, the GI50 in the assay with Hs-578T was 3.64 µM (inactive); in the assay on ACHN, 7.64 µM (inactive); in the assay with U-251, 3.85 µM (inactive); with NCI-H460 it was 6.22 µM (inactive); in the assay with SK-MEL-5 it was 20.7 µM (inactive).

With `CCOC(=O)c1nc2ccc(C(F)(F)F)cc2nc1Nc1cc(OC)c(OC)c(OC)c1`, the GI50 with HT-29, in the assay on SF-539, with A498, in the assay with KM12, with COLO 205 and in the assay with SR was > 100 µM (inactive) throughout. Besides, the GI50 in the assay with A549, with MDA-MB-231, in the assay with HL-60, in the assay on MCF7, in the assay on LOX IMVI and with DU-145 was > 100 µM (inactive) each time. In addition, the GI50 in the assay with M14, in the assay on Hs-578T, in the assay with Malme-3M, in the assay on ACHN, with NCI-H460 and in the assay on SK-MEL-5 was > 100 µM (inactive) throughout.

Turning to `CCc1nc(N)c2nc(-c3cccs3)oc2n1`, the GI50 in the assay with HT-29 is > 100 µM (inactive); with SF-539 it was > 100 µM (inactive); with A498 it was > 10 µM (inactive); with KM12, > 100 µM (inactive); in the assay on COLO 205 it was > 100 µM (inactive); with SR it was 54.8 µM (inactive). Besides, the GI50 in the assay on A549 is > 100 µM (inactive); in the assay with MDA-MB-231, > 100 µM (inactive); with HL-60 it was > 100 µM (inactive); with MCF7, > 100 µM (inactive); in the assay with LOX IMVI, 87.7 µM (inactive); with DU-145, > 100 µM (inactive). Further, the GI50 is > 100 µM (inactive) in the assay with M14; 45.3 µM (inactive) with Hs-578T; 36.4 µM (inactive) in the assay on ACHN; > 100 µM (inactive) in the assay on U-251; 24.3 µM (inactive) in the assay on NCI-H460; > 100 µM (inactive) with SK-MEL-5.

As to `CCn1c(=O)c2c3ccc(OC)cc3[nH]c2c2ccc(OC)cc21`, the GI50 in the assay on OVCAR-4 is 54.1 µM (inactive); in the assay with HT-29, 38.3 µM (inactive); in the assay with SF-539, 52.5 µM (inactive); in the assay with A498, 67.6 µM (inactive); with KM12, 8.18 µM (inactive); in the assay on COLO 205, 39.4 µM (inactive). The GI50 in the assay on SR is 70.5 µM (inactive); with A549, 59.7 µM (inactive); with MDA-MB-231, 57 µM (inactive); in the assay with MCF7 it was 50.1 µM (inactive); in the assay with DU-145 it was 43.9 µM (inactive); in the assay on M14, 36.1 µM (inactive). For the same molecule, the GI50 with Hs-578T was 40.7 µM (inactive); in the assay on Malme-3M it was 61 µM (inactive); with ACHN, 55.5 µM (inactive); in the assay on U-251 it was > 100 µM (inactive); in the assay on SK-MEL-5, 37.2 µM (inactive).

Take `CC(C)=CCC/C(C)=C/CC/C(C)=C/CC/C(C=O)=C/CC/C(C)=C\CC/C(C)=C/CC/C(C)=C/CC/C(C)=C/CC1=CC(=O)C=CC1=O`: the GI50 with OVCAR-4 is > 100 µM (inactive); in the assay on A498 it was > 100 µM (inactive); with KM12 it was 81.3 µM (inactive); in the assay with COLO 205 it was 73.8 µM (inactive); in the assay on SR it was > 100 µM (inactive); in the assay with A549, > 100 µM (inactive). Also, the GI50 is > 100 µM (inactive) with MDA-MB-231; 0.365 µM (active) in the assay on MCF7; 80.2 µM (inactive) in the assay on LOX IMVI; > 100 µM (inactive) in the assay on DU-145; 45.3 µM (inactive) in the assay with M14; 62.4 µM (inactive) with Hs-578T. For the same molecule, the GI50 was 21.8 µM (inactive) with Malme-3M; > 100 µM (inactive) in the assay with ACHN; 69.7 µM (inactive) in the assay with U-251; > 100 µM (inactive) in the assay on NCI-H460; 56 µM (inactive) in the assay with SK-MEL-5.
